As usually defined, the DC50 is the midpoint of the concentration-degradation curve.

Among the data in patent US12545659B2, “IRAK degraders and uses thereof” (Kymera Therapeutics, Inc., priority 2019, dated 2026) are DC50 values, retold here.

In the first experiment the target is T1, IRAK4 (Homo sapiens, UniProt Q9NWZ3).
T1 construct: endogenous in cells; host or cells: OCI-LY10
T1 sequence (Q9NWZ3 1-460): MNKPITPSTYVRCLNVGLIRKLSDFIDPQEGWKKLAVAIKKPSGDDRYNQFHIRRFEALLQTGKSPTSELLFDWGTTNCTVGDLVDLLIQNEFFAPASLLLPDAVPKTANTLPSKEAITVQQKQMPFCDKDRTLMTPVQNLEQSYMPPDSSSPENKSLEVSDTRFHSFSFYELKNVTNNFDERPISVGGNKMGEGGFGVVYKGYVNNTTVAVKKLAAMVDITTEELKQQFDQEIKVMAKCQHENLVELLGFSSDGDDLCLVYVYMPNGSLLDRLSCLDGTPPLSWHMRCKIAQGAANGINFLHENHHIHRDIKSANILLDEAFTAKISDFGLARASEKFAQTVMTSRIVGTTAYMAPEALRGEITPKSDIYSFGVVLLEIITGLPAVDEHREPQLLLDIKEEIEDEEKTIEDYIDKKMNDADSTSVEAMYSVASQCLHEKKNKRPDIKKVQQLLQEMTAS
Kind of experiment: IRAK4 MSD Degradation in OCI-LY10. As to conditions: OCI-LY10 cells, 4 hrs incubation, read-out: IRAK4 degradation in OCI-LY10 at 4 hrs: DC50. The experiment is classed as cell-based. As for the experimental part: Degradation of IRAK4 in OCI-LY10 was quantitatively measured using Meso Scale Discovery technology. […] Compounds were then added to the assay plates with a final top concentration of 1 to 10 μM in a 1:3 dilution series with total of 8 doses. The assay plates were then incubated for 4 to 24 hours at 37° C. under 5% C02. […] To prepare MSD assay plates (Meso Scale Discovery Catalog number L15XA-3), the plates were coated with […] capture antibody (mouse Anti-IRAK4 antibody [2H9], ab119942) in PBS, at 40 μL/well. […] Cell lysates were then added to MSD assay plates and the plates were incubated at room temperature for 1 hour. The plates were then washed 3 times with 150 μL/well TBST buffer and 25 μL/well primary detection antibody (rabbit Anti-IRAK4 antibody [Y279], from Abcam. Catalog number ab32511, 1 μg/mL). The assay plates were then incubated at room temperature for 1 hour, washed 3 times with 150 μL/well TBST buffer and 25 μL/well secondary detection antibody, SULFO-TAG anti-rabbit antibody were added (anti rabbit antibody from Meso Scale Discovery, Catalog number R32AB-1, 1 μg/mL). The assay plates were then incubated at room temperature for 1 hour, washed 3 times with 150 μL/well TBST buffer, and 150 μL/well MSD reading buffer (Meso Scale Discovery catalog number R92TC-2) was added. The plates were then analyzed by a MSD reader (Meso Scale Discovery, Model Quick Plex SQ 120). The data was then analyzed by software Prism 7.0 from GraphPad and the dose-depended IRAK4 degradation were fit using a three-parameter logistic equation to calculate DC50.
The letter codes for IRAK4 […] include: A (<0.05 μM); B (0.05-0.1 μM); C (0.1-0.5 μM); D (0.5-1.0 μM); and E (>1.0 μM).
For `CN(CCCO[C@H]1C[C@H](Cc2cccc3c2n(C)c(=O)n3C2CCC(=O)NC2=O)C1)C[C@H]1CC[C@H](n2cc3cc(NC(=O)c4cccc(C(F)(F)F)n4)c(C(C)(C)O)cc3n2)CC1` (stereo partly drawn) [I-85], the DC50 is less than 0.05 µM.

`CN(C[C@H]1CC[C@H](n2cc3cc(NC(=O)c4ccccn4)c(C(C)(C)O)cc3n2)CC1)C1CCN(c2ccc3c(c2)n(C2CCC(=O)NC2=O)c(=O)n3C)CC1` (stereo partly drawn) [I-86]: the DC50 was 0.5 to 1 µM.

For the compound `Cn1c(=O)n(C2CCC(=O)NC2=O)c2cccc(CCC3CCN(C[C@H]4CC[C@H](n5cc6cc(NC(=O)c7cccc(C(F)(F)F)n7)c(C(F)F)cc6n5)CC4)CC3)c21` (stereo partly drawn) [I-94], the 50% degradation concentration (DC50) is less than 0.05 µM.

With `Cn1c(=O)n(C2CCC(=O)NC2=O)c2cccc(C#CCC3CCN(C[C@H]4CC[C@H](n5cc6cc(NC(=O)c7cccc(C(F)(F)F)n7)c(C(F)F)cc6n5)CC4)CC3)c21` (stereo partly drawn) [I-95], the DC50 lay in the range of 0.05 to 0.1 µM.

Regarding `COc1cc2nn([C@H]3CC[C@H](CN4CCN(CCc5cccc6c5n(C)c(=O)n6C5CCC(=O)NC5=O)CC4)CC3)cc2cc1NC(=O)c1cccc(C(F)(F)F)n1` (stereo partly drawn) [I-96], the DC50 is less than 0.05 µM.

For the compound `Cn1c(=O)n(C2CCC(=O)NC2=O)c2cccc(CCN3C[C@H]4CC[C@@H](C3)N4CC[C@H]3CC[C@H](n4cc5cc(NC(=O)c6cccc(C(F)(F)F)n6)c(C(C)(C)O)cc5n4)CC3)c21` (stereo partly drawn) [I-97], the DC50 is less than 0.05 µM.

In the case of `COc1cc2nn([C@H]3CC[C@H](CN4CC(c5ccc6c(c5)n(C)c(=O)n6C5CCC(=O)NC5=O)C4)CC3)cc2cc1NC(=O)c1cccc(C(C)(C)F)n1` (stereo partly drawn) [I-98], the DC50 is less than 0.05 µM.

In the case of `Cn1c(=O)n(C2CCC(=O)NC2=O)c2ccc(C3CN(C[C@H]4CC[C@H](n5cc6cc(NC(=O)c7cccc(C(C)(C)F)n7)c(C(F)F)cc6n5)CC4)C3)cc21` (stereo partly drawn) [I-99], the DC50 was in the range of 0.05 to 0.1 µM.

For `COc1cc2nn([C@H]3CC[C@H](CN4CCC(c5ccc6c(c5)n(C)c(=O)n6C5CCC(=O)NC5=O)CC4)CC3)cc2cc1NC(=O)c1cccc(C(C)(C)F)n1` (stereo partly drawn) [I-100], the DC50 was less than 0.05 µM.

As to `Cn1c(=O)n(C2CCC(=O)NC2=O)c2ccc(C3CCN(C[C@H]4CC[C@H](n5cc6cc(NC(=O)c7cccc(C(C)(C)F)n7)c(C(F)F)cc6n5)CC4)CC3)cc21` (stereo partly drawn) [I-101], the DC50 was less than 0.05 µM.

Turning to `COc1cc2nn([C@H]3CC[C@H](CN4CCN(c5ccc6c(c5)n(C)c(=O)n6C5CCC(=O)NC5=O)CC4)CC3)cc2cc1NC(=O)c1cccc(C(F)(F)F)n1` (stereo partly drawn) [I-102], the DC50 was less than 0.05 µM.

Consider `Cn1c(=O)n(C2CCC(=O)NC2=O)c2cccc(C3CCN(C[C@H]4CC[C@H](n5cc6cc(NC(=O)c7cccc(C(C)(C)F)n7)c(C(F)F)cc6n5)CC4)CC3)c21` (stereo partly drawn) [I-103], for which the DC50 lay in the range of 0.05 to 0.1 µM.

Staying with this experiment, now noted: OCI-LY10 cells, 24 hrs incubation, read-out: IRAK4 degradation in OCI-LY10 at 24 hrs: DC50.
On to `CC(C)(O)c1cc2c(cnn2CCN2CCC3(CC2)CC(CCNc2cccc4c2C(=O)N(C2CCC(=O)NC2=O)C4=O)C3)cc1NC(=O)c1cccc(C(F)(F)F)n1` (stereo not drawn) [I-87], for which the DC50 was in the range of 0.5 to 1 µM.

Regarding `COc1cc2nn([C@H]3CC[C@H](CN4CCC5(CCC(Nc6cccc7c6C(=O)N(C6CCC(=O)NC6=O)C7=O)CC5)CC4)CC3)cc2cc1NC(=O)c1cccc(C(C)(C)F)n1` (stereo partly drawn) [I-88], the DC50 fell in the range of 0.05 to 0.1 µM.

`O=C1CCC(N2C(=O)c3cccc(NCCC4CC5(CCN(C[C@H]6CC[C@H](n7cc8cc(NC(=O)c9cccc(C(F)(F)F)n9)c(OC(F)F)cc8n7)CC6)CC5)C4)c3C2=O)C(=O)N1` (stereo partly drawn) [I-89]: the DC50 was 0.05 to 0.1 µM.

In the case of `COc1cc2nn([C@H]3CC[C@H](CN(C)[C@H]4CC[C@H](CNc5cccc6c5C(=O)N(C5CCC(=O)NC5=O)C6=O)CC4)CC3)cc2cc1NC(=O)c1cccc(C(C)(C)F)n1` (stereo partly drawn) [I-90], the DC50 was in the range of 0.1 to 0.5 µM.

On to `COc1cc2nn([C@H]3CC[C@H](CN(C)CCCN4CCOC(CNc5cccc6c5C(=O)N(C5CCC(=O)NC5=O)C6=O)C4)CC3)cc2cc1NC(=O)c1cccc(C(C)(F)F)n1` (stereo partly drawn) [I-91], for which the DC50 was in the range of 0.05 to 0.1 µM.

Turning to `COc1cc2nn([C@H]3CC[C@H](CN4CCC5(CC4)CC(CCNc4cccc6c4C(=O)N(C4CCC(=O)NC4=O)C6=O)C5)CC3)cc2cc1NC(=O)c1cccc(C(C)(C)F)n1` (stereo partly drawn) [I-92], the DC50 was 0.05 to 0.1 µM.
